ChEMBL document CHEMBL4138146, “A Schmidt rearrangement-mediated synthesis of novel tetrahydro-benzo[1,4]diazepin-5-ones as potential anticancer and antiprotozoal agents” (Eur J Med Chem, 2017)

What was measured:
Type in all cases: functional
OVCAR-8 [1] = experiment: Growth inhibition of human OVCAR8 cells assessed as cell growth at 10^-4 M incubated for 48 hrs by sulforhodamine B assay relative to control; conditions: OVCAR-8, 48 h, read-out: Activity
RPMI-8226 = experiment: Growth inhibition of human RPMI8226 cells assessed as cell growth at 10^-6 M incubated for 48 hrs by sulforhodamine B assay relative to control; conditions: RPMI-8226, 48 h, read-out: Activity
SK-MEL-28 = experiment: Growth inhibition of human SK-MEL-28 cells assessed as cell growth at 10^-6 M incubated for 48 hrs by sulforhodamine B assay relative to control; conditions: SK-MEL-28, 48 h, read-out: Activity
NCI-H522 = experiment: Growth inhibition of human NCI-H522 cells assessed as cell growth at 10^-6 M incubated for 48 hrs by sulforhodamine B assay relative to control; conditions: NCI-H522, 48 h, read-out: Activity
NCI-H23 = experiment: Growth inhibition of human NCI-H23 cells assessed as cell growth at 10^-4 M incubated for 48 hrs by sulforhodamine B assay relative to control; conditions: NCI-H23, 48 h, read-out: Activity
SF-268 = experiment: Growth inhibition of human SF268 cells assessed as cell growth at 10^-4 M incubated for 48 hrs by sulforhodamine B assay relative to control; conditions: SF-268, 48 h, read-out: Activity
MDA-MB-468 = experiment: Growth inhibition of human MDA-MB-468 cells assessed as cell growth at 10^-4 M incubated for 48 hrs by sulforhodamine B assay relative to control; conditions: MDA-MB-468, 48 h, read-out: Activity
SNB-75 [2] = experiment: Growth inhibition of human SNB75 cells assessed as cell growth at 10^-6 M incubated for 48 hrs by sulforhodamine B assay relative to control; conditions: SNB-75, 48 h, read-out: Activity
M14 [3] = experiment: Growth inhibition of human M14 cells assessed as cell growth at 10^-8 M incubated for 48 hrs by sulforhodamine B assay relative to control; conditions: M14, 48 h, read-out: Activity
KM12 = experiment: Growth inhibition of human KM12 cells assessed as cell growth at 10^-7 M incubated for 48 hrs by sulforhodamine B assay relative to control; conditions: KM12, 48 h, read-out: Activity
CCRF-CEM = experiment: Growth inhibition of human CCRF-CEM cells assessed as cell growth at 10^-7 M incubated for 48 hrs by sulforhodamine B assay relative to control; conditions: read-out: Activity
HCT-116 = experiment: Growth inhibition of human HCT116 cells assessed as cell growth at 10^-6 M incubated for 48 hrs by sulforhodamine B assay relative to control; conditions: HCT-116, 48 h, read-out: Activity
ACHN = experiment: Growth inhibition of human ACHN cells assessed as cell growth at 10^-6 M incubated for 48 hrs by sulforhodamine B assay relative to control; conditions: read-out: Activity
OVCAR-8 [4] = experiment: Growth inhibition of human OVCAR8 cells assessed as cell growth at 10^-7 M incubated for 48 hrs by sulforhodamine B assay relative to control; conditions: OVCAR-8, 48 h, read-out: Activity
HT-29 = experiment: Growth inhibition of human HT-29 cells assessed as cell growth at 10^-7 M incubated for 48 hrs by sulforhodamine B assay relative to control; conditions: HT-29, 48 h, read-out: Activity
HOP-92 = experiment: Growth inhibition of human HOP92 cells assessed as cell growth at 10^-5 M incubated for 48 hrs by sulforhodamine B assay relative to control; conditions: HOP-92, 48 h, read-out: Activity
NCI-H322M = experiment: Growth inhibition of human NCI-H322M cells assessed as cell growth at 10^-8 M incubated for 48 hrs by sulforhodamine B assay relative to control; conditions: read-out: Activity
HCC 2998 = experiment: Growth inhibition of human HCC2998 cells assessed as cell growth at 10^-5 M incubated for 48 hrs by sulforhodamine B assay relative to control; conditions: HCC 2998, 48 h, read-out: Activity
NCI/ADR-RES = experiment: Growth inhibition of human NCI/ADR-RES cells assessed as cell growth at 10^-4 M incubated for 48 hrs by sulforhodamine B assay relative to control; conditions: read-out: Activity
LOX IMVI = experiment: Growth inhibition of human LOXIMVI cells assessed as cell growth at 10^-4 M incubated for 48 hrs by sulforhodamine B assay relative to control; conditions: read-out: Activity
Hs-578T = experiment: Growth inhibition of human Hs 578T cells assessed as cell growth at 10^-8 M incubated for 48 hrs by sulforhodamine B assay relative to control; conditions: read-out: Activity
U-251 = experiment: Growth inhibition of human U251 cells assessed as cell growth at 10^-7 M incubated for 48 hrs by sulforhodamine B assay relative to control; conditions: U-251, 48 h, read-out: Activity
M14 [5] = experiment: Growth inhibition of human M14 cells assessed as cell growth at 10^-5 M incubated for 48 hrs by sulforhodamine B assay relative to control; conditions: M14, 48 h, read-out: Activity
SF-539 = experiment: Growth inhibition of human SF539 cells assessed as cell growth at 10^-8 M incubated for 48 hrs by sulforhodamine B assay relative to control; conditions: SF-539, 48 h, read-out: Activity
HCT-15 = experiment: Growth inhibition of human HCT15 cells assessed as cell growth at 10^-5 M incubated for 48 hrs by sulforhodamine B assay relative to control; conditions: HCT-15, 48 h, read-out: Activity
OVCAR-4 = experiment: Growth inhibition of human OVCAR4 cells assessed as cell growth at 10^-8 M incubated for 48 hrs by sulforhodamine B assay relative to control; conditions: OVCAR-4, 48 h, read-out: Activity
MOLT-4 = experiment: Growth inhibition of human MOLT4 cells assessed as cell growth at 10^-5 M incubated for 48 hrs by sulforhodamine B assay relative to control; conditions: MOLT-4, 48 h, read-out: Activity
UACC-257 [6] = experiment: Growth inhibition of human UACC257 cells assessed as cell growth at 10^-4 M incubated for 48 hrs by sulforhodamine B assay relative to control; conditions: UACC-257, 48 h, read-out: Activity
SW-620 = experiment: Growth inhibition of human SW620 cells assessed as cell growth at 10^-7 M incubated for 48 hrs by sulforhodamine B assay relative to control; conditions: SW-620, 48 h, read-out: Activity
IGROV-1 = experiment: Growth inhibition of human IGROV1 cells assessed as cell growth at 10^-7 M incubated for 48 hrs by sulforhodamine B assay relative to control; conditions: IGROV-1, 48 h, read-out: Activity
SNB-75 [7] = experiment: Growth inhibition of human SNB75 cells assessed as cell growth at 10^-5 M incubated for 48 hrs by sulforhodamine B assay relative to control; conditions: SNB-75, 48 h, read-out: Activity
A549 = experiment: Growth inhibition of human A549/ATCC cells assessed as cell growth at 10^-5 M incubated for 48 hrs by sulforhodamine B assay relative to control; conditions: A549, 48 h, read-out: Activity
UACC-257 [8] = experiment: Growth inhibition of human UACC257 cells assessed as cell growth at 10^-6 M incubated for 48 hrs by sulforhodamine B assay relative to control; conditions: UACC-257, 48 h, read-out: Activity

CCCCOc1nc2ccccc2cc1C1CNC(=O)c2ccccc2N1 (stereo not drawn) gave a growth at 100 µM (OVCAR-8 [1]) of -45%, a growth at 1 µM (RPMI-8226) of 84% and a growth at 1 µM (SK-MEL-28) of 71%. The growth at 1 µM (NCI-H522) was 65%, the growth at 100 µM (NCI-H23) was -26% and the growth at 100 µM (SF-268) was 1%. It also gave a growth at 100 µM (MDA-MB-468) of -43%, a growth at 1 µM (SNB-75 [2]) of 63% and a growth at 0.01 µM (M14 [3]) of 96%. For the same compound, the growth at 0.1 µM (KM12) was 98%, the growth at 0.1 µM (CCRF-CEM) was 100% and the growth at 1 µM (HCT-116) was 75%. It also gave a growth at 1 µM (ACHN) of 91%, a growth at 0.1 µM (OVCAR-8 [4]) of 98% and a growth at 0.1 µM (HT-29) of 98%. For the same compound, the growth at 10 µM (HOP-92) was 21%, the growth at 0.01 µM (NCI-H322M) was 94% and the growth at 10 µM (HCC 2998) was 15%. The growth at 100 µM (NCI/ADR-RES) was -50%, the growth at 100 µM (LOX IMVI) was -81% and the growth at 0.01 µM (Hs-578T) was 89%. The growth at 0.1 µM (U-251) was 96%, the growth at 10 µM (M14 [5]) was 4% and the growth at 0.01 µM (SF-539) was 89%. It also gave a growth at 10 µM (HCT-15) of 3%, a growth at 0.01 µM (OVCAR-4) of 92% and a growth at 10 µM (MOLT-4) of 6%. The growth at 100 µM (UACC-257 [6]) was 6%, the growth at 0.1 µM (SW-620) was 96% and the growth at 0.1 µM (IGROV-1) was 92%. It also gave a growth at 10 µM (SNB-75 [7]) of 13%, a growth at 10 µM (A549) of 14% and a growth at 1 µM (UACC-257 [8]) of 70%.
